From patent publication US20240269106A1, “SMALL MOLECULE MODULATOR TARGETING A RARE HISTONE MODIFICATION REGULATING ADIPOGENESIS AND PHARMACEUTICAL FORMULATION THEREOF” (COUNCIL OF SCIENTIFIC AND INDUSTRIAL RESEARCH AN INDIAN …, priority 2021, published 2024)

What was measured:
full length p300 = target: T1, full length p300 (Homo sapiens, UniProt Q09472); test: In vitro p300 acetylation assay (immunoblot); type: biochemical; details: same range of concentration (10, 15, 20 and 25 μM)
T1 construct: Purified full length p300 protein was used for in vitro acetylation/butyrylation assay
T1 sequence (Q09472 whole entry, species assumed): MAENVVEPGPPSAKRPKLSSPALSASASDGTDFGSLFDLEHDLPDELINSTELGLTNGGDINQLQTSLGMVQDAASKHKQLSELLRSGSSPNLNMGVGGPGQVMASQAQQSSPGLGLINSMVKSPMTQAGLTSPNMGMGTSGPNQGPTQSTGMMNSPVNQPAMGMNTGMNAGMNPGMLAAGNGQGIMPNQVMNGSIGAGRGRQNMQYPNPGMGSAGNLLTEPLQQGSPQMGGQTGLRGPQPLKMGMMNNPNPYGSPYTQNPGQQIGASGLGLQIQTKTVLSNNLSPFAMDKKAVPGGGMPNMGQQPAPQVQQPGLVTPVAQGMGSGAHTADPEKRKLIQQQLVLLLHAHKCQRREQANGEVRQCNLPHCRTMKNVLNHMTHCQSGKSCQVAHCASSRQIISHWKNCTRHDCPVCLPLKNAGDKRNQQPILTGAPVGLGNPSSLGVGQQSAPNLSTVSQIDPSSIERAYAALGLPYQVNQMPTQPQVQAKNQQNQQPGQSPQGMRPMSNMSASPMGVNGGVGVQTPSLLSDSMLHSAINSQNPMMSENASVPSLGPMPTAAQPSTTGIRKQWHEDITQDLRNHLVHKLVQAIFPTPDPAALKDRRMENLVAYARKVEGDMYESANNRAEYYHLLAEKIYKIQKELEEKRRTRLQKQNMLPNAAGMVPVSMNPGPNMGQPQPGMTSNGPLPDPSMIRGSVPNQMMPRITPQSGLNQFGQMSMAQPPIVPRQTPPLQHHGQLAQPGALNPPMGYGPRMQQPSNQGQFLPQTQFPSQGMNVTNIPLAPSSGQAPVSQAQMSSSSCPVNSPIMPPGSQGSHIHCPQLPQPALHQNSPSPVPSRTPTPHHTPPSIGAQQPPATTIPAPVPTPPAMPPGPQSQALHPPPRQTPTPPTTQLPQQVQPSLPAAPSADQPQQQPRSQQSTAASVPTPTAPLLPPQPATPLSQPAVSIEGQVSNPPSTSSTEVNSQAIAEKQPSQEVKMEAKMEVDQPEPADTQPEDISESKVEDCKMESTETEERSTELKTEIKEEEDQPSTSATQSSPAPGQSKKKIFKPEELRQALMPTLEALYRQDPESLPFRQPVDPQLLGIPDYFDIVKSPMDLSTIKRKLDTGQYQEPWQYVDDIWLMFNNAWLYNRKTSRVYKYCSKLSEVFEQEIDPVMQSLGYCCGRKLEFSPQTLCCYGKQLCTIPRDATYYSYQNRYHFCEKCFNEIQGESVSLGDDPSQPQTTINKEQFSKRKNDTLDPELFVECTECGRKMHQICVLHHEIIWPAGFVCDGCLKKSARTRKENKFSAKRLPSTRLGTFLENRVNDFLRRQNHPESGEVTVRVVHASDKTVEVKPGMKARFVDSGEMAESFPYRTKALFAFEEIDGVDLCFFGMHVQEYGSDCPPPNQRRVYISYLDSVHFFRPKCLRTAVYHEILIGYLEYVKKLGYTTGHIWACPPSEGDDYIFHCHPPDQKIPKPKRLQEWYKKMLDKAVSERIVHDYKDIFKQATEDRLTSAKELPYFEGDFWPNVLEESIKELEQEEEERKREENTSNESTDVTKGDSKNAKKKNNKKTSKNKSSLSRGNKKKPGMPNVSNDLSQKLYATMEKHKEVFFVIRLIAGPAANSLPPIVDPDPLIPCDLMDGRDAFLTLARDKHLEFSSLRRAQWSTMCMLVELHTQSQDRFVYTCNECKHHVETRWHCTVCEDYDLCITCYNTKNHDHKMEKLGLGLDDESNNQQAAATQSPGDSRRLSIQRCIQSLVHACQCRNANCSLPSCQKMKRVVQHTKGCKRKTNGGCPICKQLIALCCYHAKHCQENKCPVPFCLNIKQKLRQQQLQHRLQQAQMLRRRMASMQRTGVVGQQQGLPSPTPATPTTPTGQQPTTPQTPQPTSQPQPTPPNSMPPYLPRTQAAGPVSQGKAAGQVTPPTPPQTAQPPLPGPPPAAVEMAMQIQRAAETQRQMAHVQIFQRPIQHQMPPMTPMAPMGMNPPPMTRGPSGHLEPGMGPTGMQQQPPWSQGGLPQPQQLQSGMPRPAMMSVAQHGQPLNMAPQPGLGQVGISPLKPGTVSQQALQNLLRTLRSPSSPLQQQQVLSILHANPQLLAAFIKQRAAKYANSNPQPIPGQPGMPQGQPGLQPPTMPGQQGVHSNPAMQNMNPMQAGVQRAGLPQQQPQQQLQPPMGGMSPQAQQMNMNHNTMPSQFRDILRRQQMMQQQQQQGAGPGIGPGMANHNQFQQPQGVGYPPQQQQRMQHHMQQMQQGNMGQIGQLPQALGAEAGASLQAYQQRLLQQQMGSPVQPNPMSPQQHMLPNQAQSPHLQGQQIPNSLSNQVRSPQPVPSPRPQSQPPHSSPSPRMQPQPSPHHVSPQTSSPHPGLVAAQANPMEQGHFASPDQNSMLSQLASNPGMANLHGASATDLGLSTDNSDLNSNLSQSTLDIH
Description: Purified full length p300 protein was used for in vitro acetylation/butyrylation assay in presence/absence of different compounds. Acylation reactions were performed in reaction buffer (25 mM Tris-HCl PH 7.5, 100 mM NaCl, 0.1 mM EDTA, 1 mM DTT, 10% Glycerol, 1×PIC) with 100 ng/ml TSA, and 50 μM Butyryl-CoA/Acetyl COA. Xenopus histone H3 (500 ng) was used as the substrate and p300 (10,000 cpm activity) was used as the enzyme. Reactions were incubated in presence or absence of small molecule modulators (including compound of Formula I) for 10 minutes at 30° C., followed by initiation of the acetylation/butyrylation reaction by the addition of acetyl/butyryl CoA. After a further 10 minutes, reactions were stopped by addition of Laemmli buffer and samples were used for immunoblotting.
Immunoblotting with antibodies against acetylated H3K18, acetylated H3K9 and pan-butyryl lysine was performed to check for the relative inhibition of acetyl transferase and butyryl transferase activities of full length p300 by garcinol, isogarcinol and its different derivatives including compound of Formula I at different concentrations. FIG. 2i depicts the effect of garcinol, isogarcinol and two of its derivatives LTK-13 and LTK-14 on p300 catalysed acetyltransferase activity. […] FIG. 2ii depicts the effect of LTK-14 on acetylation and butyrylation catalysed by p300. Lane 1, enzyme alone; Lane 2-4, enzyme+LTK-14 at concentrations 500 nM, 2 μM and 10 μM, respectively. LTK-14 could inhibit acetylation at 10 μM concentration while butyrylation was inhibited at 2 μM concentration. FIG. 2iii depicts the effect of compound x on acetylation and butyrylation catalysed by p300. Lane 1, enzyme alone; Lane 2, enzyme+DMSO; Lane 3-6, enzyme+compound x at concentrations 10, 15, 20 and 25 μM, respectively.

[1] = Single dose toxicity study for maximum tolerated dose; type: in vivo
Description: The single dose toxicity study on compound X was conducted in accordance with Good Laboratory Practice Principles as published by the OECD in 1998, in accordance with the Drugs and Cosmetics Rule (New Drugs and Clinical trials, 2019/DCGI). Compound X (formulated in vehicle i.e. 0.5% sodium salt of carboxymethyl cellulose) was administered to Sprague Dawley rats once by oral route on the day of scheduled treatment. The three treatment groups were 250 mg, 500 mg, and 1000 mg/kg body weight, while vehicle control was administered to control group. The rat equivalent doses were calculated from the dosage used in mice experiments following FDA guidelines for drug administration. The doses finally administered were 10, 20 and 40 times the corresponding mice equivalent dose. Food, but not water, was removed thus letting the animals fast over-night prior to dosing. […] Animals were subsequently observed once daily for any signs of toxicity, mortality, or any other observations including conditions of skin, hair coat, eyes, mucous membrane, movement, activity, tremors, convulsions, salivation, diarrhea, posture, piloerection and lethargy. Food intake, water intake and body weight of animals was recorded weekly. Terminal sacrifice of surviving animals was performed after 14 days using CO2 euthanasia technique following which animals were necropsied. Animals were fasted over night before necropsy. Gross observations were recorded.

With `COc1ccc(C(=O)C2=C3OC(C)(C)[C@@H](CC=C(C)C)C[C@@]34C[C@@H](CC=C(C)C)C(C)(C)[C@@](CC=C(C)C)(C2=O)C4=O)cc1OC` [Compound X] as the compound, how does the “effect on acetylation catalysed by p300” value (full length p300) read?
Its value is “without affecting acetylation”.

What about the “gross morphological changes in organs” value ([1]; 250, 500, 1000 mg/kg single oral dose, necropsy) of the same compound?
The value was “no gross morphological changes in any organ”.

What about the “Average food intake, Final” value ([1]; Female, 250 mg/Kg bw) of the same compound?
Its value is 16.65 gram/day/animal.

What about the “Average food intake, Initial” value ([1]; Female, 250 mg/Kg bw) of the same compound?
The value was 20 gram/day/animal.

And the “Average food intake, Middle” value ([1]; Female, 250 mg/Kg bw)?
Its value is 16.32 gram/day/animal.

What about the “Average water intake, Final” value ([1]; Female, 250 mg/Kg bw) of the same compound?
Its value is 16.65 ml/day/animal.

And the “Average water intake, Initial” value ([1]; Female, 250 mg/Kg bw)?
The value was 20 ml/day/animal.

What about the “Average water intake, Middle” value ([1]; Female, 250 mg/Kg bw) of the same compound?
The value was 16.32 ml/day/animal.

What about the “Body weight, Final” value ([1]; Female, 250 mg/Kg bw) of the same compound?
The value was 176.35 gram.

And the “Body weight, Initial” value ([1]; Female, 250 mg/Kg bw)?
Its value is 151.99 gram.

What about the “Body weight, Mid” value ([1]; Female, 250 mg/Kg bw) of the same compound?
The value was 174.54 gram.

What about the “Average food intake, Final” value ([1]; Female, 500 mg/Kg bw) of the same compound?
Its value is 17.09 gram/day/animal.

And the “Average food intake, Initial” value ([1]; Female, 500 mg/Kg bw)?
The value was 18.22 gram/day/animal.

What about the “Average food intake, Middle” value ([1]; Female, 500 mg/Kg bw) of the same compound?
Its value is 18.13 gram/day/animal.

What about the “Average water intake, Final” value ([1]; Female, 500 mg/Kg bw) of the same compound?
Its value is 17.09 ml/day/animal.

What about the “Average water intake, Initial” value ([1]; Female, 500 mg/Kg bw) of the same compound?
The value was 18.22 ml/day/animal.

What about the “Average water intake, Middle” value ([1]; Female, 500 mg/Kg bw) of the same compound?
Its value is 18.13 ml/day/animal.

What about the “Body weight, Final” value ([1]; Female, 500 mg/Kg bw) of the same compound?
The value was 175.8 gram.

What about the “Body weight, Initial” value ([1]; Female, 500 mg/Kg bw) of the same compound?
Its value is 153.32 gram.

What about the “Body weight, Mid” value ([1]; Female, 500 mg/Kg bw) of the same compound?
Its value is 176.55 gram.

And the “Average food intake, Final” value ([1]; Female, 1000 mg/Kg bw)?
The value was 16.97 gram/day/animal.

And the “Average food intake, Initial” value ([1]; Female, 1000 mg/Kg bw)?
The value was 18.17 gram/day/animal.

And the “Average food intake, Middle” value ([1]; Female, 1000 mg/Kg bw)?
The value was 17.82 gram/day/animal.

What about the “Average water intake, Final” value ([1]; Female, 1000 mg/Kg bw) of the same compound?
Its value is 16.97 ml/day/animal.

What about the “Average water intake, Initial” value ([1]; Female, 1000 mg/Kg bw) of the same compound?
Its value is 18.17 ml/day/animal.

What about the “Average water intake, Middle” value ([1]; Female, 1000 mg/Kg bw) of the same compound?
The value was 17.82 ml/day/animal.

What about the “Body weight, Final” value ([1]; Female, 1000 mg/Kg bw) of the same compound?
The value was 179.52 gram.

And the “Body weight, Initial” value ([1]; Female, 1000 mg/Kg bw)?
The value was 153.81 gram.

What about the “Body weight, Mid” value ([1]; Female, 1000 mg/Kg bw) of the same compound?
Its value is 178.58 gram.

And the “Average food intake, Final” value ([1]; Male, 250 mg/Kg bw)?
The value was 22.62 gram/day/animal.

What about the “Average food intake, Initial” value ([1]; Male, 250 mg/Kg bw) of the same compound?
The value was 20.03 gram/day/animal.

What about the “Average food intake, Middle” value ([1]; Male, 250 mg/Kg bw) of the same compound?
Its value is 20.79 gram/day/animal.

What about the “Average water intake, Final” value ([1]; Male, 250 mg/Kg bw) of the same compound?
Its value is 22.62 ml/day/animal.

And the “Average water intake, Initial” value ([1]; Male, 250 mg/Kg bw)?
The value was 20.03 ml/day/animal.

And the “Average water intake, Middle” value ([1]; Male, 250 mg/Kg bw)?
The value was 20.79 ml/day/animal.

And the “Body weight, Final” value ([1]; Male, 250 mg/Kg bw)?
Its value is 244.21 gram.

What about the “Body weight, Initial” value ([1]; Male, 250 mg/Kg bw) of the same compound?
The value was 171.94 gram.

What about the “Body weight, Mid” value ([1]; Male, 250 mg/Kg bw) of the same compound?
Its value is 216.62 gram.

And the “Average food intake, Final” value ([1]; Male, 500 mg/Kg bw)?
Its value is 23.29 gram/day/animal.

What about the “Average food intake, Initial” value ([1]; Male, 500 mg/Kg bw) of the same compound?
Its value is 20.99 gram/day/animal.

And the “Average food intake, Middle” value ([1]; Male, 500 mg/Kg bw)?
Its value is 21.14 gram/day/animal.

What about the “Average water intake, Final” value ([1]; Male, 500 mg/Kg bw) of the same compound?
The value was 23.29 ml/day/animal.

What about the “Average water intake, Initial” value ([1]; Male, 500 mg/Kg bw) of the same compound?
The value was 20.99 ml/day/animal.

What about the “Average water intake, Middle” value ([1]; Male, 500 mg/Kg bw) of the same compound?
Its value is 21.14 ml/day/animal.

What about the “Body weight, Final” value ([1]; Male, 500 mg/Kg bw) of the same compound?
The value was 243.14 gram.

And the “Body weight, Initial” value ([1]; Male, 500 mg/Kg bw)?
Its value is 176.3 gram.

And the “Body weight, Mid” value ([1]; Male, 500 mg/Kg bw)?
Its value is 229.75 gram.

And the “Average food intake, Final” value ([1]; Male, 1000 mg/Kg bw)?
The value was 19.95 gram/day/animal.

What about the “Average food intake, Initial” value ([1]; Male, 1000 mg/Kg bw) of the same compound?
Its value is 20.76 gram/day/animal.

And the “Average food intake, Middle” value ([1]; Male, 1000 mg/Kg bw)?
The value was 20.74 gram/day/animal.

And the “Average water intake, Final” value ([1]; Male, 1000 mg/Kg bw)?
Its value is 19.95 ml/day/animal.

And the “Average water intake, Initial” value ([1]; Male, 1000 mg/Kg bw)?
The value was 20.76 ml/day/animal.

What about the “Average water intake, Middle” value ([1]; Male, 1000 mg/Kg bw) of the same compound?
Its value is 20.74 ml/day/animal.

What about the “Body weight, Final” value ([1]; Male, 1000 mg/Kg bw) of the same compound?
The value was 226.19 gram.

What about the “Body weight, Initial” value ([1]; Male, 1000 mg/Kg bw) of the same compound?
Its value is 176.24 gram.

And the “Body weight, Mid” value ([1]; Male, 1000 mg/Kg bw)?
Its value is 217.65 gram.

What about the “effect on food and water consumption” value ([1]; both gender, all three doses vs vehicle control) of the same compound?
Its value is “no significant treatment related effect”.
